Consider 2 molecules from ChEMBL document CHEMBL5107958, “Phosphoramidate Prodrugs Continue to Deliver, The Journey of Remdesivir (GS-5734) from RSV to SARS-CoV-2” (ACS Med Chem Lett, 2022).

Test [1] relates to SARS-CoV-2. The test can be described thus: Antiviral activity against SARS-CoV-2 infected in HAEC cells assessed as reduction in viral replication incubated for 1.5 hrs followed by virus removal upto 24 hrs and subsequent replacement of medium containing compound by RT-qPCR analysis. In kind it is functional, organism-based. The settings on record: Severe acute respiratory syndrome coronavirus 2, HAEC. (In qPCR the cycle at which signal appears reflects the starting amount.)

Test [2] deals with SARS-CoV-2. Description: Potency index, ratio of EC50 of GS-441524 to EC50 of test compound for antiviral activity against SARS-CoV-2 infected in HAEC cells assessed as reduction in viral replication incubated for 1.5 hrs followed by virus removal upto 24 hrs and subsequent replacement of medium containing compound by RT-qPCR analysis. In kind it is functional, Severe acute respiratory syndrome coronavirus 2. The conditions noted are these: time <= 25.5 hrs.

Turning to `N#C[C@@]1(c2ccc3c(N)ncnn23)O[C@H](CO)[C@@H](O)[C@H]1O` [GS-441524], the EC50 in test [1] was determined as 510 nM.

With `CCC(CC)OC(=O)[C@H](C)N[P@](=O)(OC[C@H]1O[C@@](C#N)(c2ccc3c(N)ncnn23)[C@H](O)[C@@H]1O)Oc1ccccc1`, in test [1], the EC50 stood at 48 nM. The Ratio in test [2] turned out to be 11.

As a reminder, the EC50 is the concentration that produces a half-maximal response.
